Laboratory results reported in patent publication US12083101B2, “Biaryl derivatives as YAP/TAZ-TEAD protein-protein interaction inhibitors” (Novartis AG, priority 2020, dated 2024).

Key:
[1] = target: Avi-humanTEAD4 217-434 / Cy5 labeled humanYAP 60-100 (Homo sapiens (Human), UniProt Q15561); test: TR-FRET YAP-TEAD4 in-vitro biochemical assay; type: binding; conditions: 1 nM Avi-humanTEAD4 217-434, 20 nM Cy5-humanYAP 60-100, 1 h room temperature
[2] = tested on: NCI-H2052 Tet-On shYAP_2371 pLenti6 MCAT_Luc cells; test: Proliferation assay (resazurin), NCI-H2052; type: cell-based; conditions: Homo sapiens, NCI-H2052, 72 h, 72 hours incubation
Outline: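 The NCI-H2052 line carries a Tet-inducible shRNA against the YAP1 3′UTR and an MCAT luciferase reporter. The day after seeding, it received eleven 2-fold compound dilutions at 0.1% DMSO, and viability was read by resazurin fluorescence.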

[3] = tested on: NCI-H2052 Tet-On shYAP_2371 pLenti6 MCAT_Luc cells (YAP-dependent transcription); test: YAP reporter gene activity assay (MCAT-luciferase), NCI-H2052; type: cell-based; conditions: Homo sapiens, NCI-H2052, 24 h, 24 hours incubation, BrightGlo luminescence
Outline: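 Luminescence was read 5 min after BrightGlo, following 24 h at 37 °C of compound exposure (eleven 2-fold dilutions, DMSO normalized to 0.1%). Cells were NCI-H2052 with a YAP-responsive MCAT-luciferase and a Tet-inducible shRNA against YAP1 3′UTR. Cell-free background was removed, values were normalized to vehicle, and IC50 was fitted with four parameters.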

MKN-45/Ubc-luc cells [4] = test: Reporter gene specificity control (Ubc-luciferase), MKN-45; conditions: Homo sapiens, MKN-45, 24 h, read-out: Reporter gene assay MKN-45 IC50 [μM], MKN-45/Ubc-luc cells (YAP deleted, specificity control), 24 hours incubation
Method: As a specificity control, MKN-45 cells were stably transduced with a Ubc-Luc reporter construct, in which constitutive expression of firefly luciferase is driven by the promoter of the ubiquitin C housekeeping gene.
Stock solutions of compounds were prepared at a concentration of 10 mM in DMSO and stored at 4° C. Where necessary to afford a full dose-response curve, the stock solutions were pre-diluted in DMSO to 1'000-fold the desired reduced start concentration. On the day after cell seeding, eleven 2-fold serial dilutions of each compound were dispensed directly into the cell assay plates using a HP 300D non-contact Digital Dispenser (TECAN, Mannedorf, Switzerland). The final concentration of DMSO was normalized to 0.1% in all wells.
The ability of compounds to inhibit YAP-dependent transcription was assessed in NCI-H2052 Tet-On shYAP_2371 pLenti6 MCAT_Luc cells, while specificity (lack of unspecific inhibition of luciferase expression of activity) was assessed in MKN-45/Ubc-luc cells. […] Following incubation for 24 hours at 37° C., compound-mediated modulation of reporter-gene activity was quantified 5 min after addition of 20 μl BrightGlo (Promega, Cat #E2620), by measuring luminescence intensity on a multi-mode plate-reader (TECAN, Männedorf, Switzerland, Integration time 100 ms). For data analysis, the assay background value determined in wells containing medium, but no cells, was subtracted from all data points. Dose-dependent compound effects were expressed as % of vehicle-treated control (luminescence signal produced by cells receiving DMSO only) and IC50s calculated using a four-parametric fit model.

MKN-45/Ubc-luc cells [5] = test: Proliferation assay (resazurin), MKN-45; type: cell-based; conditions: Homo sapiens, 72 hours incubation

Avi-humanTEAD4 217-434 / Cy5 labeled humanYAP 60-100, sequence (Q15561 217-434): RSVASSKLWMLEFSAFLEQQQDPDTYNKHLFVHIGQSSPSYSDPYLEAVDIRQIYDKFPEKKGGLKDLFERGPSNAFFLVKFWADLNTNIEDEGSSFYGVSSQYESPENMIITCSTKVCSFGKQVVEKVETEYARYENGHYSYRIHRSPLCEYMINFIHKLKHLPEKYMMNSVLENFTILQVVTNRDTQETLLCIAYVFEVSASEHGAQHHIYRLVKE

SMILES	IC50 [1]	GI50 [2]	IC50 [3]	IC50 (MKN-45/Ubc-luc cells [4])	GI50 (MKN-45/Ubc-luc cells [5])
COc1ccc(C(N)=O)c(-c2c(C(F)(F)F)ccc3c2C[C@@](CN)(c2ccccc2)O3)c1 (atropisomer, axis not shown) [Example 128, 2-((2S,4R)-2-(Aminomethyl)-2-phenyl-5-(trifluoromethyl)-2,3-dihydrobenzofuran-4-yl)-4-methoxybenzamide]	176 nM	7050 nM	5720 nM	> 10 µM	> 10000 nM
CNC(=O)c1ccc(OC)c(F)c1-c1c(C#N)ccc2c1C[C@@](CN[C@H]1CC[C@](C)(O)CC1)(c1ccccc1)O2 (atropisomer, axis not shown) [Example 129, 2-((2S,4R)-5-Cyano-2-((((trans)-4-hydroxy-4-methylcyclohexyl)amino)methyl)-2-phenyl-2,3-dihydrobenzofuran-4-yl)-3-fluoro-4-methoxy-N-methylbenzamide]	25 nM	892 nM	615 nM	> 10 µM	> 10000 nM
NC[C@@]1(c2ccccc2)Cc2c(cc(F)c(Cl)c2-c2c(F)cccc2C(N)=O)N1 (atropisomer, axis not shown) [Example 134, 2-((2S,4S)-2-(aminomethyl)-5-chloro-6-fluoro-2-phenylindolin-4-yl)-3-fluorobenzamide]	74 nM	1570 nM	2310 nM	> 10 µM	> 10000 nM
NC(=O)c1ccc(OC(F)F)c(F)c1-c1c(Cl)ccc2c1C[C@@](CNC1CCCCC1)(c1ccccc1)O2 (atropisomer, axis not shown) [Example 135, 2-((2S,4S)-5-Chloro-2-((cyclohexylamino)methyl)-2-phenyl-2,3-dihydrobenzofuran-4-yl)-4-(difluoromethoxy)-3-fluorobenzamide]	7 nM	627 nM	247 nM	> 10 µM	8640 nM
CNC[C@]1(c2ccccc2)Oc2cc(F)c(Cl)c(-c3c(C(N)=O)ccc(OC)c3F)c2[C@@H]1C (atropisomer, axis not shown) [Example 144, 2-((2S,3S,4S)-5-Chloro-6-fluoro-3-methyl-2-((methylamino)methyl)-2-phenyl-2,3-dihydrobenzofuran-4-yl)-3-fluoro-4-methoxybenzamide]	2 nM	10 nM	10 nM	> 8 µM	> 8000 nM
CNC[C@]1(c2ccccc2)Oc2cc(F)c(Cl)c(-c3c(C(=O)NC)cnc(OCCO)c3F)c2[C@@H]1C (atropisomer, axis not shown) [Example 145, 4-((2S,3S,4S)-5-Chloro-6-fluoro-3-methyl-2-((methylamino)methyl)-2-phenyl-2,3-dihydrobenzofuran-4-yl)-5-fluoro-6-(2-hydroxyethoxy)-N-methylnicotinamide]	5 nM	58 nM	46 nM	> 20 µM	> 20000 nM
CNC[C@]1(c2ccccc2)Oc2cc(F)c(Cl)c(-c3c(C(N)=O)ccc(OC)c3F)c2[C@@H]1COC (atropisomer, axis not shown) [Example 146, 2-((2S,3R,4S)-5-Chloro-6-fluoro-3-(methoxymethyl)-2-((methylamino)methyl)-2-phenyl-2,3-dihydrobenzofuran-4-yl)-3-fluoro-4-methoxybenzamide]	3 nM	23 nM	25 nM	> 10 µM	> 10000 nM
CNC[C@]1(c2ccccc2)Oc2cc(F)c(Cl)c(-c3c(C(N)=O)ccc(OC)c3F)c2[C@@H]1CO (atropisomer, axis not shown) [Example 147, 2-((2S,3R,4S)-5-Chloro-6-fluoro-3-(hydroxymethyl)-2-((methylamino)methyl)-2-phenyl-2,3-dihydrobenzofuran-4-yl)-3-fluoro-4-methoxybenzamide]	1 nM	5 nM	11 nM	> 3.3 µM	> 3300 nM
C[C@H]1c2c(cc(F)c(Cl)c2-c2c(C(N)=O)ccc(OCC(C)(C)O)c2F)O[C@]1(CN[C@H]1CC[C@](C)(O)CC1)c1ccccc1 (atropisomer, axis not shown) [Example 148, 2-((2S,3S,4S)-5-Chloro-6-fluoro-2-((((trans)-4-hydroxy-4-methylcyclohexyl)amino)methyl)-3-methyl-2-phenyl-2,3-dihydrobenzofuran-4-yl)-3-fluoro-4-(2-hydroxy-2-methylpropoxy)benzamide]	4 nM	53 nM	54 nM	> 20 µM	> 20000 nM
NC(=O)c1ccc(OCCO)c(F)c1-c1c(Cl)c(F)cc2c1C[C@](c1ccccc1)([C@@H]1CCCN1)O2 (atropisomer, axis not shown) [Example 151, 2-((2S,4S)-5-Chloro-6-fluoro-2-phenyl-2-((S)-pyrrolidin-2-yl)-2,3-dihydrobenzofuran-4-yl)-3-fluoro-4-(2-hydroxyethoxy)benzamide]	2 nM	22 nM	15 nM	> 10 µM	> 10000 nM
C[C@H](O)COc1ccc(C(N)=O)c(-c2c(Cl)c(F)cc3c2C[C@](c2ccccc2)([C@@H]2CCCN2)O3)c1F (atropisomer, axis not shown) [Example 152, 2-((2S,4S)-5-Chloro-6-fluoro-2-phenyl-2-((S)-pyrrolidin-2-yl)-2,3-dihydrobenzofuran-4-yl)-3-fluoro-4-((S)-2-hydroxypropoxy)benzamide]	2 nM	25 nM	36 nM	> 10 µM	> 10000 nM
CNC(=O)c1ccc(OCCO)c(F)c1-c1c(Cl)c(F)cc2c1C[C@](c1ccccc1)([C@@H]1CCCN1)O2 (atropisomer, axis not shown) [Example 153, 2-((2S,4S)-5-Chloro-6-fluoro-2-phenyl-2-((S)-pyrrolidin-2-yl)-2,3-dihydrobenzofuran-4-yl)-3-fluoro-4-(2-hydroxyethoxy)-N-methylbenzamide]	< 1 nM	104 nM	24 nM	> 10 µM	> 10000 nM
CNC(=O)c1ccc(OC[C@H](C)O)c(F)c1-c1c(Cl)c(F)cc2c1C[C@](c1ccccc1)([C@@H]1CCCN1)O2 (atropisomer, axis not shown) [Example 154, 2-((2S,4S)-5-Chloro-6-fluoro-2-phenyl-2-((S)-pyrrolidin-2-yl)-2,3-dihydrobenzofuran-4-yl)-3-fluoro-4-((S)-2-hydroxypropoxy)-N-methylbenzamide]	8 nM	59 nM	77 nM	> 10 µM	> 10000 nM
CNC(=O)c1ccc(OCCO)c(F)c1-c1c(Cl)c(F)cc2c1C[C@](c1ccccc1)([C@@H]1CCCCN1)O2 (atropisomer, axis not shown) [Example 161, 2-((2S,4S)-5-Chloro-6-fluoro-2-phenyl-2-((S)-piperidin-2-yl)-2,3-dihydrobenzofuran-4-yl)-3-fluoro-4-(2-hydroxyethoxy)-N-methylbenzamide]	29 nM	167 nM	174 nM	> 10 µM	> 10000 nM
NC(=O)c1ccc(OCCO)c(F)c1-c1c(Cl)c(F)cc2c1C[C@](c1ccccc1)([C@@H]1CCCN1)N2 (atropisomer, axis not shown) [Example 170, 2-((2S,4S)-5-Chloro-6-fluoro-2-phenyl-2-((S)-pyrrolidin-2-yl)indolin-4-yl)-3-fluoro-4-(2-hydroxyethoxy)benzamide]	1 nM	23 nM	12 nM	> 8 µM	> 8000 nM
COc1ccc(C(N)=O)c(-c2c(Cl)c(F)cc3c2C[C@](c2ccccc2)([C@@H]2CCCN2)N3)c1F (atropisomer, axis not shown) [Example 171, 2-((2S,4S)-5-Chloro-6-fluoro-2-phenyl-2-((S)-pyrrolidin-2-yl)indolin-4-yl)-3-fluoro-4-methoxybenzamide]	2 nM	73 nM	116 nM	15.5 µM	13000 nM
CNC(=O)c1ccc(OC[C@H](C)O)c(F)c1-c1c(Cl)c(F)cc2c1C[C@](c1ccccc1)([C@@H]1CCCN1)N2 (atropisomer, axis not shown) [Example 172, 2-((2S,4S)-5-Chloro-6-fluoro-2-phenyl-2-((S)-pyrrolidin-2-yl)indolin-4-yl)-3-fluoro-4-((S)-2-hydroxypropoxy)-N-methylbenzamide]	15 nM	104 nM	144 nM	> 20 µM	> 20000 nM
CNC(=O)c1cnc(OCCO)c(F)c1-c1c(Cl)c(F)cc2c1C[C@](c1ccccc1)([C@@H]1CCCN1)N2 (atropisomer, axis not shown) [Example 173, 4-((2S,4S)-5-Chloro-6-fluoro-2-phenyl-2-((S)-pyrrolidin-2-yl)indolin-4-yl)-5-fluoro-6-(2-hydroxyethoxy)-N-methylnicotinamide]	14 nM	158 nM	187 nM	> 20 µM	> 20000 nM
